Experimental data published in ChEMBL document CHEMBL4390644, “Synthesis, structure-activity relationship studies and biological characterization of new [1,2,4]triazolo[1,5-a]pyrimidine-based LSD1/KDM1A inhibitors” (Eur J Med Chem, 2019).
Activity calls are given as the source filed them. The calls are words filed in the database; no cut-off is given here.

What was measured:
[1] = biological target: T1, MAO-B (Homo sapiens, UniProt P27338); test: Inhibition of N-terminal FLAG-tagged full length recombinant human MAO-B expressed in Sf9 cells at 10 uM using luciferin derived luminogenic substrate preincubated for 15 mins followed by substrate addition and measured after 60 mins by MAO-Glo assay relative to control; conditions: probe luciferin derived luminogenic substrate
T1 sequence (P27338 whole entry): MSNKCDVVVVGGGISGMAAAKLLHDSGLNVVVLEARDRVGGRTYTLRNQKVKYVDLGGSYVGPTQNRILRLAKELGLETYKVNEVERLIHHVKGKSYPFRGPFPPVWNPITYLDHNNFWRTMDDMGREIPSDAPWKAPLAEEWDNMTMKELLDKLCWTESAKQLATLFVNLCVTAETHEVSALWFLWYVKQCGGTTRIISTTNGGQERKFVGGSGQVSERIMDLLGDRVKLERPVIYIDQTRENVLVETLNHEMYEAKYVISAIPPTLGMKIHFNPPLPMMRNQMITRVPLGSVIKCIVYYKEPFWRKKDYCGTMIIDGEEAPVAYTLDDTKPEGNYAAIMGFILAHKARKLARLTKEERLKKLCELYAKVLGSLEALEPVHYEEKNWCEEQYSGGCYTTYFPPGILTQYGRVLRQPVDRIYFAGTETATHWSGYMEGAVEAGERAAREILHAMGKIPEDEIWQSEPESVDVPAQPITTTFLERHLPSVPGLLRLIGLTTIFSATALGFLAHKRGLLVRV

[2] = Antioxidant activity assessed as hydrogen peroxide scavenging activity at 10 uM incubated for 30 mins by ferrous ion oxidation-xylenol orange based method; assay type: functional
[3] = tested on: A549; test: Down regulation of slug levels in human A549 cells up to 16 uM after 96 hrs by Western blot analysis; assay type: functional, cell-based
[4] = tested on: A549; test: Effect on LSD1 expression in human A549 cells up to 16 uM after 96 hrs by Western blot analysis; assay type: functional, cell-based
[5] = tested on: A549; test: Up regulation of E-cadherin levels in human A549 cells up to 16 uM after 96 hrs by Western blot analysis; assay type: functional, cell-based
[6] = biological target: T2, MAO-A (Homo sapiens, UniProt P21397); test: Inhibition of N-terminal FLAG-tagged full length recombinant human MAO-A expressed in Sf9 cells at 1 uM using luciferin derived luminogenic substrate preincubated for 15 mins followed by substrate addition and measured after 60 mins by MAO-Glo assay relative to control; conditions: probe luciferin derived luminogenic substrate
T2 sequence (P21397 whole entry): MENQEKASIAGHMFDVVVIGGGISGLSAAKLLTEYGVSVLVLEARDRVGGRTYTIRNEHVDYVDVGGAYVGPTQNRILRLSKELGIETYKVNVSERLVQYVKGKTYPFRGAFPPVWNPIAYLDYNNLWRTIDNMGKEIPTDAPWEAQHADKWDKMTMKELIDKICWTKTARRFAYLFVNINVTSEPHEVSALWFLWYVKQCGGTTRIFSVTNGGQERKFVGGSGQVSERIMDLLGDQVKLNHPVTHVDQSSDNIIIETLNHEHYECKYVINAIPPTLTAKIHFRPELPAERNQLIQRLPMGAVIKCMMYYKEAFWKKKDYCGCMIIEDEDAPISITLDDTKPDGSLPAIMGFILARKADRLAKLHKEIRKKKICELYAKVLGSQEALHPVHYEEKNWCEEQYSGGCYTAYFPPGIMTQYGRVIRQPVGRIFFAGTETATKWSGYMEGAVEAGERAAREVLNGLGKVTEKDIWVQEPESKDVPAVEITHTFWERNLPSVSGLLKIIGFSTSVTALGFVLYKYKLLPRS

[7] = tested on: A549; test: Down regulation of N-cadherin levels in human A549 cells up to 16 uM after 96 hrs by Western blot analysis; assay type: functional, cell-based
[8] = tested on: A549; test: Antiproliferative activity against human A549 cells assessed as reduction in cell viability measured after 72 hrs by MTT based method; conditions: A549, 72 h
[9] = tested on: A549; conditions: Homo sapiens, 16 uM
Description: Antimigratory activity in human A549 cells at 16 uM after 48 hrs by Hoechst 33258 staining based transwell assay

[10] = tested on: Armoracia rusticana; conditions: 10 uM
Description: Inhibition of horseradish peroxidase at 10 uM incubated for 10 mins with presence of H2O2 by absorbance based method relative to control

[11] = biological target: T1, MAO-B; test: Inhibition of N-terminal FLAG-tagged full length recombinant human MAO-B expressed in Sf9 cells at 1 uM using luciferin derived luminogenic substrate preincubated for 15 mins followed by substrate addition and measured after 60 mins by MAO-Glo assay relative to control; conditions: probe luciferin derived luminogenic substrate
[12] = tested on: A549; test: Up regulation of claudin-1 levels in human A549 cells up to 16 uM after 96 hrs by Western blot analysis; assay type: functional, cell-based
[13] = biological target: T2, MAO-A; test: Inhibition of N-terminal FLAG-tagged full length recombinant human MAO-A expressed in Sf9 cells at 10 uM using luciferin derived luminogenic substrate preincubated for 15 mins followed by substrate addition and measured after 60 mins by MAO-Glo assay relative to control; conditions: probe luciferin derived luminogenic substrate
[14] = tested on: A549; test: Down regulation of snail levels in human A549 cells up to 16 uM after 96 hrs by Western blot analysis; assay type: functional, cell-based
[15] = biological target: T3, Lysine-specific histone demethylase 1A (Homo sapiens, UniProt O60341); test: Inhibition of recombinant LSD1 (unknown origin) expressed in Escherichia coli BL21(DE) using H3K4me2 substrate by amplex red and horseradish peroxidase based fluorescence assay
[16] = tested on: A549; test: Antiproliferative activity against human A549 cells assessed as reduction in cell viability at <40 uM measured after 72 hrs by MTT based method; assay type: functional
[17] = biological target: T3, Lysine-specific histone demethylase 1A; test: Inhibition of LSD1 in human A549 cells assessed as accumulation of H3K4me1 at 8 to 16 uM after 96 hrs by Western blot analysis; assay type: cell-based
[18] = biological target: T3, Lysine-specific histone demethylase 1A; test: Inhibition of LSD1 in human A549 cells assessed as accumulation of H3K9me1 at 8 to 16 uM after 96 hrs by Western blot analysis; assay type: cell-based
[19] = biological target: T3, Lysine-specific histone demethylase 1A; test: Binding affinity to LSD1 in human A549 cells assessed as increase in stability of cellular LSD1 protein at 10 to 20 uM pre-incubated for 1 hr followed by heating at 46 and 52 degC for 3 mins by Western blot-based CESTA; assay type: cell-based
[20] = biological target: T3, Lysine-specific histone demethylase 1A; test: Inhibition of LSD1 in human A549 cells assessed as accumulation of H3K9me2 at 8 to 16 uM after 96 hrs by Western blot analysis; assay type: cell-based
[21] = biological target: T3, Lysine-specific histone demethylase 1A; test: Inhibition of LSD1 in human A549 cells assessed as accumulation of H3K4me2 at 8 to 16 uM after 96 hrs by Western blot analysis; assay type: cell-based
[22] = biological target: T3, Lysine-specific histone demethylase 1A; test: Binding affinity to LSD1 in human A549 cells assessed as increase in stability of cellular LSD1 protein at 10 uM pre-incubated for 1 hr followed by heating at 49 degC for 3 mins by Western blot-based CESTA; assay type: cell-based
[23] = biological target: T3, Lysine-specific histone demethylase 1A; test: Binding affinity to LSD1 in human A549 cells assessed as increase in stability of cellular LSD1 protein at 10 uM pre-incubated for 1 hr followed by heating at 52 degC for 3 mins by Western blot-based CESTA; assay type: cell-based
[24] = tested on: A549; test: Antiproliferative activity against human A549 cells assessed as reduction in cell viability at 1.25 to 100 uM measured after 72 hrs by MTT based method; assay type: functional
[25] = biological target: T3, Lysine-specific histone demethylase 1A; conditions: 1.6 uM
Description: Irreversible inhibition of recombinant LSD1 (unknown origin) expressed in Escherichia coli BL21(DE) assessed as recovery of enzyme activity at 1.6 uM using H3K4me2 substrate incubated for 1 hr followed by 80 fold dilution by dilution assay

Cc1cc(Nc2ccc(N3CCN(C)CC3)cc2)n2nc(SCc3nc4ccccc4[nH]3)nc2n1
inhibition at 1 h, 10 µM [1]: 34%
Activity [2]: inactive
Activity [3]: Active
Activity [4]: inactive
Activity [5]: Active
inhibition at 1 h, 1 µM [6]: 13%
Activity [7]: Active
IC50 [8]: 23.8 µM
inhibition [9]: Active
inhibition [10]: inactive
inhibition at 1 h, 1 µM [11]: 18%
Activity [12]: Active
inhibition at 1 h, 10 µM [13]: 40%
Activity [14]: Active

CN1CCN(c2ccc(Nc3c4c(nc5ncnn35)CCC4)cc2)CC1
IC50 [15]: > 50 µM

Cc1nc2nc(SCc3ccc(Cl)cc3)nn2c(Nc2ccc(N3CCN(C)CC3)cc2)c1C
IC50 [15]: > 50 µM

Cc1cc(Nc2ccccc2)n2nc(SCc3nc4ccccc4[nH]3)nc2n1
Activity [2]: inactive
Activity [3]: inactive
Activity [4]: inactive
Activity [16]: inactive
Activity [5]: inactive
inhibition [17]: inactive
inhibition [18]: inactive
Activity [7]: inactive
Activity [19]: inactive
Activity [12]: inactive
inhibition [20]: inactive
Activity [14]: inactive
inhibition [21]: inactive
IC50 [15]: > 50 µM

c1ccc([C@@H]2C[C@H]2NC2CCNCC2)cc1
Activity [3]: Active
Activity [4]: inactive
Activity [22]: Active
Activity [5]: Active
Activity [23]: Active
Activity [7]: Active
Activity [24]: inactive
Activity [12]: Active
Activity [14]: Active

Cc1cc(Nc2ccc(N3CCN(C)CC3)cc2)n2nc(SCC3CC3)nc2n1
IC50 [15]: > 50 µM

O=C(O)c1ccc(CN2CCC(CN[C@@H]3C[C@H]3c3ccccc3)CC2)cc1
inhibition [25]: inactive

CN1CCN(c2ccc(Nc3cc(-c4ccccc4)nc4ncnn34)cc2)CC1
IC50 [15]: > 50 µM

Cc1cc(N)n2nc(SCc3ccccc3)nc2n1
IC50 [15]: > 50 µM

CCCCCc1c(C)nc2nc(SCc3ccc(Cl)cc3)nn2c1Nc1ccc(N2CCN(C)CC2)cc1
IC50 [15]: > 50 µM

Cc1cc(Nc2ccc(N3CCN(C)CC3)cc2)n2nc(SCc3ccccc3[N+](=O)[O-])nc2n1
IC50 [15]: > 50 µM

Cc1cc(Nc2ccccc2)n2nc(SCc3ccccc3)nc2n1
IC50 [15]: > 50 µM

Cc1cc(Nc2ccc(N3CCN(C)CC3)cc2)n2nc(SCCCc3ccccc3)nc2n1
IC50 [15]: > 50 µM
